Data as given in ChEMBL document CHEMBL2380269, “Conformationally restricted homotryptamines. Part 6: indole-5-cycloalkyl methylamines as selective serotonin reuptake inhibitors” (Bioorg Med Chem Lett, 2013).

What was measured:
[1] = system: HEK293; experiment: Ratio of IC50 for human NET expressed in HEK293 cell membranes to IC50 for human SERT expressed in HEK293 cell membranes; assay type: cell-based
[2] = system: HEK293; experiment: Ratio of IC50 for human DAT expressed in HEK293 cell membranes to IC50 for human SERT expressed in HEK293 cell membranes; assay type: cell-based
[3] = target: T1, Sodium-dependent dopamine transporter (Homo sapiens, UniProt Q01959); experiment: Displacement of [3H]WIN-35428 form human DAT expressed in HEK293 cell membranes at 1 uM
[4] = target: T2, Sodium-dependent noradrenaline transporter (Homo sapiens, UniProt P23975); experiment: Displacement of [3H]nisoxetine from human NET expressed in HEK293 cell membranes
[5] = target: T2, Sodium-dependent noradrenaline transporter; experiment: Displacement of [3H]nisoxetine from human NET expressed in HEK293 cell membranes at 1 uM
[6] = target: Sodium-dependent serotonin transporter (Homo sapiens, UniProt P31645); experiment: Displacement of [3H]citalopram from human SERT expressed in HEK293 cell membranes
[7] = target: T1, Sodium-dependent dopamine transporter; experiment: Displacement of [3H]WIN-35428 form human DAT expressed in HEK293 cell membranes

T2 sequence (P23975 whole entry): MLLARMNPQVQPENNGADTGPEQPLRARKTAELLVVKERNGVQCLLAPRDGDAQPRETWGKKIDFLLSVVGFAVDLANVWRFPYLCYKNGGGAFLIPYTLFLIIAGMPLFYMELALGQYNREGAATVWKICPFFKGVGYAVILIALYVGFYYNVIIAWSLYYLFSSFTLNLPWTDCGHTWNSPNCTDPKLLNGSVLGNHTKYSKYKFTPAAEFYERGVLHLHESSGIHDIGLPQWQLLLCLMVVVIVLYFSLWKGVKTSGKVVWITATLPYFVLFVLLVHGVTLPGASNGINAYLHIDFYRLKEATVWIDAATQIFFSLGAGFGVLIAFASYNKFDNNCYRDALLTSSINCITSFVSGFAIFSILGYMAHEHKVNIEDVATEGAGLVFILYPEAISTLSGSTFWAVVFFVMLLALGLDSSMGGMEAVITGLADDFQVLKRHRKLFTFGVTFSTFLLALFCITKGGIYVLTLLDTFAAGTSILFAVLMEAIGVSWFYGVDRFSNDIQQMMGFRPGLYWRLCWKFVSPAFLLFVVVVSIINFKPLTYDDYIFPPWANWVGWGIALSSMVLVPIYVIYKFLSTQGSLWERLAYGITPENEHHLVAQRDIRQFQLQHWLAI
Sequence of Sodium-dependent serotonin transporter (P31645 whole entry): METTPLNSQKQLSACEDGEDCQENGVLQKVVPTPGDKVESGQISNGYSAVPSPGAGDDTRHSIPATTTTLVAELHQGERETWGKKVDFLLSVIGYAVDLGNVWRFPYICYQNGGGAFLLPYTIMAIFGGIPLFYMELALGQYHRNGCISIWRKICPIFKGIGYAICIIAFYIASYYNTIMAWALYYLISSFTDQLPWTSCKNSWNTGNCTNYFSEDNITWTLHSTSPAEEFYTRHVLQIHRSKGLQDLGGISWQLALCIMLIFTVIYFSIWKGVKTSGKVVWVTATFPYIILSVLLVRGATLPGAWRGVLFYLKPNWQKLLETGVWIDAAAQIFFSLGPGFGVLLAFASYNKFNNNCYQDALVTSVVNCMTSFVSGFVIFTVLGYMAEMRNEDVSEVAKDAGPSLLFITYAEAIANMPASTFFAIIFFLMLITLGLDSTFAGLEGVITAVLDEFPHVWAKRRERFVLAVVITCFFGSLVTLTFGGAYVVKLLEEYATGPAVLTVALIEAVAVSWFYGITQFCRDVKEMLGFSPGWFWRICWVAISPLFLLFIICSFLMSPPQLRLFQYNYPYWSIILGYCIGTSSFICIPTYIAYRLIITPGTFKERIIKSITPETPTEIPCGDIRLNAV
T1 sequence (Q01959 whole entry): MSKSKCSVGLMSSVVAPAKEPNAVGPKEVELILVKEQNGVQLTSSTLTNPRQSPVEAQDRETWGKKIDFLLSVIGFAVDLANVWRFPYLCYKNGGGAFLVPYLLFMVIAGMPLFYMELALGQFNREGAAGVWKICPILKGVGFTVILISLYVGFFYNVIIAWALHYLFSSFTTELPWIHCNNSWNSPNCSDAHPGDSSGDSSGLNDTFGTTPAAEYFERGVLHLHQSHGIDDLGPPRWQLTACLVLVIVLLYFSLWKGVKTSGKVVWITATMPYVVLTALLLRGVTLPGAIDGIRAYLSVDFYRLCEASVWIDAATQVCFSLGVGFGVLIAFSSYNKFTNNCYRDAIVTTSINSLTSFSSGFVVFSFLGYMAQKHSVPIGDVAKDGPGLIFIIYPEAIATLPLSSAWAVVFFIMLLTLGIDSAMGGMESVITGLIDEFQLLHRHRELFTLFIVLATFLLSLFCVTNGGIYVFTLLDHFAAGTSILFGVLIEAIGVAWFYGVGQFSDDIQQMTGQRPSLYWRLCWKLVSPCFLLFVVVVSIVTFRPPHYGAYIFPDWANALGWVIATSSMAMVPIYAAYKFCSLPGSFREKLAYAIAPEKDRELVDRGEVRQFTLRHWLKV

CN(C)C[C@@H]1CCC[C@H]1c1ccc2[nH]cc(C#N)c2c1 (racemic)
Ratio IC50 [1]: > 100 | Ratio IC50 [2]: > 100 | inhibition [3]: 50% | IC50 [4]: 8200 nM | inhibition [5]: -1.7% | IC50 [6]: 3.8 nM

CN(C)C[C@@H]1C[C@H]1c1ccc2[nH]ccc2c1 (racemic)
IC50 [6]: > 1000 nM

CN(C)C[C@@H]1C[C@H]1c1ccc2[nH]cc(C#N)c2c1 (racemic)
Ratio IC50 [1]: > 100 | Ratio IC50 [2]: > 100 | inhibition [3]: 39% | inhibition [5]: 55% | IC50 [6]: 6 nM

CCNC[C@@H]1CCC[C@H]1c1ccc2[nH]cc(C#N)c2c1 (racemic)
IC50 [6]: 260 nM

N#Cc1c[nH]c2ccc([C@@H]3CCC[C@H]3CN3CCCC3)cc12 (racemic)
IC50 [6]: 300 nM

CN(C)C[C@H]1C[C@@H]1Cc1ccc2[nH]cc(C#N)c2c1 (racemic)
Ratio IC50 [1]: > 100 | Ratio IC50 [2]: > 100 | inhibition [3]: 17% | inhibition [5]: 25% | IC50 [6]: 97 nM

CCN(C)C[C@@H]1CCC[C@H]1c1ccc2[nH]cc(C#N)c2c1 (racemic)
IC50 [6]: 200 nM

CCN(CC)C[C@@H]1CCC[C@H]1c1ccc2[nH]cc(C#N)c2c1 (racemic)
IC50 [6]: 710 nM

CN(C)C[C@H]1C[C@@H]1c1c[nH]c2ccc(C#N)cc12
IC50 [6]: 0.56 nM

CNC[C@H]1CCC[C@H]1c1ccc2[nH]cc(C#N)c2c1 (racemic)
Ratio IC50 [1]: 10 | Ratio IC50 [2]: 10 | IC50 [7]: 660 nM | inhibition [3]: 53% | IC50 [4]: 510 nM | inhibition [5]: 78% | IC50 [6]: 64 nM

CN(Cc1ccccc1)C[C@@H]1CCC[C@H]1c1ccc2[nH]cc(C#N)c2c1 (racemic)
IC50 [6]: 140 nM

CN(C)C[C@@H]1CCC[C@H]1c1ccc2c(c1)c(C#N)cn2C (racemic)
IC50 [6]: 570 nM

CN(C)C[C@H]1CCC[C@H]1c1c[nH]c2ccc(C#N)cc12
IC50 [6]: 1.1 nM

CN(C)C[C@H]1CCC[C@H]1c1ccc2[nH]cc(C#N)c2c1 (racemic)
Ratio IC50 [1]: > 100 | Ratio IC50 [2]: > 100 | inhibition [3]: 56% | inhibition [5]: 68% | IC50 [6]: 18 nM

CNC[C@@H]1CCC[C@H]1c1ccc2[nH]cc(C#N)c2c1 (racemic)
Ratio IC50 [1]: > 100 | Ratio IC50 [2]: > 100 | IC50 [7]: 750 nM | inhibition [3]: 49% | IC50 [4]: 3700 nM | inhibition [5]: 16% | IC50 [6]: 4.3 nM
